Laboratory results published in publication PMC6443962, “Anti-nociceptive and Anti-inflammatory Activities of Asparacosin A Involve Selective Cyclooxygenase 2 and Inflammatory Cytokines Inhibition: An in-vitro, in-vivo, and in-silico Approach” (Frontiers in Immunology, 2019).

Columns and labels:
[1] = molecular target: T1, COX-1 (cyclooxygenase 1, ovine) (Ovis aries, UniProt P05979); assay: colorimetric COX inhibitor screening assay (Cayman kit […]); format: biochemical
T1 construct: gene PTGS1
T1 sequence (P05979 25-600): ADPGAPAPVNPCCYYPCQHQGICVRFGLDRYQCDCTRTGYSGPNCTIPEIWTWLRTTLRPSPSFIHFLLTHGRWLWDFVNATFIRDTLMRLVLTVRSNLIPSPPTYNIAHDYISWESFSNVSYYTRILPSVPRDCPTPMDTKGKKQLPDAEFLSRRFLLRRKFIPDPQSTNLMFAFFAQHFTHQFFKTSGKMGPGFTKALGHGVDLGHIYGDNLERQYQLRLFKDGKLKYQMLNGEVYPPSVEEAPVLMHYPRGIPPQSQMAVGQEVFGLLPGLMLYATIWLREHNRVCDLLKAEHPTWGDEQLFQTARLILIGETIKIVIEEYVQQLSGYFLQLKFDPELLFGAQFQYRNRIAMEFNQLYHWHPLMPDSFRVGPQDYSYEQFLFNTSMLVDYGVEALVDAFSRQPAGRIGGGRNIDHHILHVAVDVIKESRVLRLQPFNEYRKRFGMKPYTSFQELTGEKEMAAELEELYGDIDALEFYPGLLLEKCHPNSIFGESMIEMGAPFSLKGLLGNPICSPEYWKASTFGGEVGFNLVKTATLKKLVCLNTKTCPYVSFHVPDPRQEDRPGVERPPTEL

[2] = molecular target: T2, COX-2 (cyclooxygenase 2, human recombinant) (Homo sapiens, UniProt P35354); assay: as above; format: biochemical
T2 construct: gene PTGS2
T2 sequence (P35354 18-604): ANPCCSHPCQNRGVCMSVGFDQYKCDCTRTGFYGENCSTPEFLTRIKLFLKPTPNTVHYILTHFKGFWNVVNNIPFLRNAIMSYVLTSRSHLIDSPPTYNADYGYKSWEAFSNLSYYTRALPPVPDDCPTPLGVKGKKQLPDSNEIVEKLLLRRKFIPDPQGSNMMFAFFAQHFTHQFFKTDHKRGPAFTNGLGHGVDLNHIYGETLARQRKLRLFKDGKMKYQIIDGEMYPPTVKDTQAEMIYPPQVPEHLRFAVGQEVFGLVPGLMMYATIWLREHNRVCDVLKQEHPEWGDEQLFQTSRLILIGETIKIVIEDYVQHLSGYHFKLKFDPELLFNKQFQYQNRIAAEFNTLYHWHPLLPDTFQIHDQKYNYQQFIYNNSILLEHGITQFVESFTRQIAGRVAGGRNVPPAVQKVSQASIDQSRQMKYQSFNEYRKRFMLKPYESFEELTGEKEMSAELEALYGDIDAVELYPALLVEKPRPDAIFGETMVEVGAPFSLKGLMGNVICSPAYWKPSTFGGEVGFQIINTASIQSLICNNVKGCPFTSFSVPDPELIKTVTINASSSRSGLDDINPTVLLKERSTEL

Q: Which results are given for `C[C@@H]1CC[C@@]2(OC1)O[C@H]1C[C@H]3[C@@H]4CCC5=CC(=O)CC[C@]5(C)[C@H]4C[C@@H](O)[C@]3(C)[C@@]1(O)[C@@H]2C` [Asparacosin A]?
A: IC50 [1]: 24.2 µM; IC50 [2]: 0.6 µM
